Read-outs that look alike come from different tables or passages of the source.
Columns and labels:
Type in all cases: cell-based, human
LoVo-Dox = assay: SRB colorimetric assay of cell growth and viability, LoVo-Dox; settings: 48 hours exposure; for CC50: read-out: LC50 LOVO-DOX
Method in brief: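 Tumor cells are continuously exposed to sample for 48 hours, with vehicle DMSO:EtOH:PBS (0.5:0.5:99), after an 18-hour drug-free attachment period. Bound SRB, measured at 490 nm, reflects cell mass; GI, TGI and LC are derived from triplicate means.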

LNCaP = assay: SRB colorimetric assay of cell growth and viability, LNCaP; settings: 48 hours exposure; for GI50: read-out: GI50 LN-caP; for CC50: read-out: LC50 LN-caP
SK-BR-3 = assay: SRB colorimetric assay of cell growth and viability, SK-BR-3; settings: 48 hours exposure
PANC-1 = assay: SRB colorimetric assay of cell growth and viability, PANC-1; settings: 48 hours exposure; for CC50: read-out: LC50 PANC-1
IGROV-1 = assay: SRB colorimetric assay of cell growth and viability, IGROV-1; settings: 48 hours exposure
HeLa-APL = assay: SRB colorimetric assay of cell growth and viability, HeLa-APL; settings: 48 hours exposure; for CC50: read-out: LC50 HELA-APL
LoVo = assay: SRB colorimetric assay of cell growth and viability, LoVo; settings: 48 hours exposure; for CC50: read-out: LC50 LOVO
A-549 = assay: SRB colorimetric assay of cell growth and viability, A-549; settings: 48 hours exposure; for GI50: read-out: GI50 A-549; for CC50: read-out: LC50 A-549
K-562 = assay: SRB colorimetric assay of cell growth and viability, K-562; settings: 48 hours exposure; for CC50: read-out: LC50 K-562
IGROV-ET = assay: SRB colorimetric assay of cell growth and viability, IGROV-ET; settings: 48 hours exposure; for CC50: read-out: LC50 IGROV-ET
DU-145 = assay: SRB colorimetric assay of cell growth and viability, DU-145; settings: 48 hours exposure
HeLa = assay: SRB colorimetric assay of cell growth and viability, HeLa; settings: 48 hours exposure; for CC50: read-out: LC50 HELA
HT-29 = assay: SRB colorimetric assay of cell growth and viability, HT-29; settings: 48 hours exposure; for GI50: read-out: GI50 HT-29; for CC50: read-out: LC50 HT-29
SK-MEL-28 = assay: SRB colorimetric assay of cell growth and viability, SK-MEL-28; settings: 48 hours exposure; for CC50: read-out: LC50 MEL-28

[(c/t)-4-Me-cHexa^14]-KF [Compound 14]
GI50 (LoVo-Dox): 144 nM | TGI LOVO-DOX (LoVo-Dox): 2.88E−07 Molar | CC50 (LoVo-Dox): 576 nM | TGI LN-caP (LNCaP): 2.87E−06 Molar | GI50 (LNCaP): 1340 nM | CC50 (LNCaP): 6.11 µM | GI50 (SK-BR-3): 152 nM | LC50 (SK-BR-3): 657 nM | TGI SK-BR-3 (SK-BR-3): 3.17E−07 Molar | GI50 (PANC-1): 2010 nM | TGI PANC-1 (PANC-1): 6.71E−06 Molar | CC50 (PANC-1): 6.71 µM | GI50 (IGROV-1): 382 nM | LC50 (concentration causing 50% net cell killing) (IGROV-1): 3.47 µM | TGI IGROV (IGROV-1): 1.22E−06 Molar | GI50 (HeLa-APL): 611 nM | TGI HELA-APL (HeLa-APL): 1.72E−06 Molar | CC50 (HeLa-APL): 4.56 µM | GI50 (LoVo): 99.3 nM | TGI LOVO (LoVo): 2.34E−07 Molar | CC50 (LoVo): 550 nM | TGI A-549 (A-549): 2.15E−06 Molar | GI50 (A-549): 933 nM | CC50 (A-549): 4.95 µM | GI50 (K-562): 2020 nM | TGI K-562 (K-562): 3.58E−06 Molar | CC50 (K-562): 6.32 µM | GI50 (IGROV-ET): 846 nM | TGI IGROV-ET (IGROV-ET): 1.94E−06 Molar | CC50 (IGROV-ET): 4.47 µM | GI50 (DU-145): 612 nM | LC50 (concentration causing 50% net cell kill) (DU-145): 3.36 µM | TGI DU-145 (DU-145): 1.48E−06 Molar | GI50 (HeLa): 779 nM | TGI HELA (HeLa): 1.84E−06 Molar | CC50 (HeLa): 4.37 µM | TGI HT-29 (HT-29): 4.22E−07 Molar | GI50 (HT-29): 189 nM | CC50 (HT-29): 1830 nM | GI50 (SK-MEL-28): 886 nM | TGI MEL-28 (SK-MEL-28): 1.89E−06 Molar | CC50 (SK-MEL-28): 4.01 µM

[D,L-Ser^2]-KF [Compound 64]
GI50 (LoVo-Dox; SRB): ≥ 6750 nM | TGI LOVO-DOX (LoVo-Dox; SRB): 6.75E−06 Molar | CC50 (LoVo-Dox; SRB): ≥ 6750 nM | TGI LN-caP (LNCaP): 3.99E−06 Molar | GI50 (LNCaP): 1800 nM | CC50 (LNCaP): ≥ 6.75 µM | GI50 (SK-BR-3): ≥ 6750 nM | LC50 (SK-BR-3): ≥ 6750 nM | TGI SK-BR-3 (SK-BR-3): 6.75E−06 Molar | GI50 (PANC-1; SRB): ≥ 6750 nM | TGI PANC-1 (PANC-1; SRB): 6.75E−06 Molar | CC50 (PANC-1; SRB): ≥ 6.75 µM | GI50 (IGROV-1): ≥ 6750 nM | LC50 (concentration causing 50% net cell killing) (IGROV-1): ≥ 6.75 µM | TGI IGROV (IGROV-1): 6.75E−06 Molar | GI50 (HeLa-APL; SRB): ≥ 6750 nM | TGI HELA-APL (HeLa-APL; SRB): 6.75E−06 Molar | CC50 (HeLa-APL; SRB): ≥ 6.75 µM | GI50 (LoVo; SRB): ≥ 6750 nM | TGI LOVO (LoVo; SRB): 6.75E−06 Molar | CC50 (LoVo; SRB): ≥ 6750 nM | TGI A-549 (A-549; SRB): 6.75E−06 Molar | GI50 (A-549; SRB): ≥ 6750 nM | CC50 (A-549; SRB): ≥ 6.75 µM | GI50 (K-562; SRB): ≥ 6750 nM | TGI K-562 (K-562; SRB): 6.75E−06 Molar | CC50 (K-562; SRB): ≥ 6.75 µM | GI50 (IGROV-ET): ≥ 6750 nM | TGI IGROV-ET (IGROV-ET): 6.75E−06 Molar | CC50 (IGROV-ET): ≥ 6.75 µM | GI50 (DU-145): ≥ 6750 nM | LC50 (concentration causing 50% net cell kill) (DU-145): ≥ 6.75 µM | TGI DU-145 (DU-145): 6.75E−06 Molar | GI50 (HeLa; SRB): ≥ 6750 nM | TGI HELA (HeLa; SRB): 6.75E−06 Molar | CC50 (HeLa; SRB): ≥ 6.75 µM | TGI HT-29 (HT-29; SRB): 6.75E−06 Molar | GI50 (HT-29; SRB): ≥ 6750 nM | CC50 (HT-29; SRB): ≥ 6750 nM | GI50 (SK-MEL-28): ≥ 6750 nM | TGI MEL-28 (SK-MEL-28): 6.75E−06 Molar | CC50 (SK-MEL-28): ≥ 6.75 µM

Source: patent publication US20070117743A1, “New antitumoral compounds” (priority 2003, published 2007)
